Laboratory results: patent US12295396B2, “Antagonists of T2R54 and compositions and uses thereof” (Firmenich Incorporated, priority 2018, dated 2025)
Where two headings read alike, the source gives them in different places. Each block holds one compound with its values, some of them ahead of it.

Target: T1, hT2R54 (Homo sapiens, UniProt P59534)
T1 construct: expressed in transfected cells; it overexpresses a promiscuous G protein
T1 sequence (P59534 1-338): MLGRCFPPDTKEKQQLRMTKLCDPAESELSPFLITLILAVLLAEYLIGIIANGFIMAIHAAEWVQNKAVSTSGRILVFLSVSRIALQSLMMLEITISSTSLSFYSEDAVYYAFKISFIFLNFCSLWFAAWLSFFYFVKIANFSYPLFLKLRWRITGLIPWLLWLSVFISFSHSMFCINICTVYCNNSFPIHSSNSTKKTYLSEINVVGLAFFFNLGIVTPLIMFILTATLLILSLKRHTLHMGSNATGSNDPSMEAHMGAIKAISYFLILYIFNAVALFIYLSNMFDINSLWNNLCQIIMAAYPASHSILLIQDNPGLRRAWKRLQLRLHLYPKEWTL
Assay: Cell-based assay for measuring hT2R54 inhibition (FLIPR calcium, Fluo4AM, acetaminophen as bitter agonist)
Protocol: Cells stably expressing hT2R54 and a promiscuous G protein were seeded in 384 well plates 24 hours prior to the experiment. Cells were loaded with the calcium indicator Fluo4AM, washed and loaded in a FLIPR instrument with a compound plate containing increasing doses of acetaminophen in quadruplicates and prepared at 2× of final concentration. Baseline was recorded for 10 seconds, then 25 μl of […] was added onto 25 μl of cells and resulting changes in fluorescence were monitored over an additional 3 minutes. The host cell line overexpressing the G protein but not hT2R54 was treated as described above.
The ability of a test compound that blocks bitter taste elicited through hT2R54 was measured in this assay, as follows. Cells stably expressing hT2R54 and a promiscuous G protein were seeded in 384 well plates 24 hours prior to the experiment. Cells were loaded with the calcium indicator Fluo4AM, washed and loaded in a FLIPR instrument with a compound plate containing increasing doses of acetaminophen in buffer and increasing doses of acetaminophen with depicted fixed concentrations of Cmpd 109 (Table 4). Base line was recorded for 10 seconds, then 25 μl of compound and compound mixtures were added onto 25 μl of cells and resulting changes in fluorescence were monitored over an additional 3 minutes. The concentration of test compound that blocks half of the response when the bitter compound alone is present is presented as the EC50 or IC50 value.
In the examples above, the EC50 of compounds for blocking bitter taste elicited through T2R54 was measured in the same manner.

[1] = Table 2, cells stably expressing hT2R54 and a promiscuous G protein, read-out: hT2R54 IC50
[2] = Table 4, cells stably expressing hT2R54 and a promiscuous G protein, read-out: hT2R54 IC50

IC50 (Table 6, cells stably expressing hT2R54 and a promiscuous G protein, read-out: hT2R54 IC50): 690 nM
Compound: CC(=O)c1cc2c(cc1NC(=O)CN1CCC(NC(=O)c3ccco3)CC1)OCO2 [compound 172]

IC50 [1]: > 10000 nM
Compound: COc1cc2c(cc1NC(=O)CN1CCN(C(=O)c3cnon3)CC1)OCO2 [compound 387]

IC50 (Table 8, read-out: hT2R54 IC50): 460 nM
Compound: COC(=O)c1cc2c(cc1NC(=O)CC1CCN(C(=O)c3ccncc3)CC1)OCO2 [compound 484]

IC50 (Table 8, read-out: hT2R54 IC50): 12 nM
Compound: CC(=O)c1cc2c(cc1NC(=O)CC1CCCN(C(=O)C(C)C)C1)OCO2 (centres unmarked) [compound 205]

IC50 [2]: 1000 nM
Compound: CC(=O)c1cc2c(cc1NC(=O)CN1CCOc3ccccc31)OCO2 [compound 423]

IC50 (Table 8, read-out: hT2R54 IC50): 70 nM
Compound: COCc1ccc(C(=O)N2CCC(CC(=O)Nc3cc4c(cc3C(C)=O)OCO4)CC2)o1 [compound 468]

IC50 (Table 8, read-out: hT2R54 IC50): 339 nM
Compound: CC(=O)c1cc2c(cc1NC(=O)CC1CCN(C(=O)c3cnn(C)c3)CC1)OCO2 [compound 201, N-(6-Acetylbenzo[d][1,3]dioxol-5-yl)-2-(1-(1-methyl-1H-pyrazole-4-carbonyl)piperidin-4-yl)acetamide]

IC50 [2]: 9 nM
Compound: CCOC(=O)C1CCCN(CC(=O)Nc2cc3c(cc2C(C)=O)OCO3)C1 (centres unmarked) [compound 115, Ethyl 1-(2-((6-Acetylbenzo[d][1,3]dioxol-5-yl)amino)-2-oxoethyl)piperidine-3-carboxylate]

IC50 [2]: 246 nM
Compound: CC(=O)c1cc2c(cc1NC(=O)CN1CC(C)OC(C)C1)OCO2 (centres unmarked) [compound 119]

IC50 [1]: 600 nM
Compound: COc1ccc(C(=O)N2CCN(CC(=O)Nc3cc4c(cc3OC)OCO4)CC2)cc1 [compound 368]

IC50 [1]: 179 nM
Compound: COCCOCC(=O)N1CCN(CC(=O)Nc2cc3c(cc2C(C)=O)OCO3)CC1 [compound 21]

IC50 (Table 8, read-out: hT2R54 IC50): 16 nM
Compound: CCCC(=O)N1CCCC(CC(=O)Nc2cc3c(cc2C(C)=O)OCO3)C1 (centres unmarked) [compound 204]

IC50 (Table 3, cells stably expressing hT2R54 and a promiscuous G protein, read-out: hT2R54 IC50): 1060 nM
Compound: CC(=O)c1cc2c(cc1NC(=O)CN1CCN(Cc3ccccc3)CC1)OCO2 [compound 101, N-(6-acetylbenzo[d][1,3]dioxol-5-yl)-2-(4-benzylpiperazin-1-yl)acetamide]

IC50 [1]: 190 nM
Compound: COCc1ccc(C(=O)N2CCN(C(C)C(=O)Nc3cc4c(cc3C(C)=O)OCCO4)CC2)cc1 (centres unmarked) [compound 413]

IC50 [1]: 430 nM
Compound: COc1cc2c(cc1NC(=O)CN1CCN(C(=O)c3cccc(O)c3)CC1)OCO2 [compound 93]

IC50 (Table 8, read-out: hT2R54 IC50): 420 nM
Compound: CC(=O)c1cc2c(cc1NC(=O)CC1CCN(C(=O)Cc3ccccc3F)CC1)OCO2 [compound 248]

IC50 [2]: 183 nM
Compound: CC(=O)c1cc2c(cc1NC(=O)CN1CCC(C)CC1)OCO2 [compound 418]

IC50 [1]: 200 nM
Compound: CC(=O)c1cc2c(cc1NC(=O)CN1CCN(C(=O)c3c[nH]c(C)n3)CC1)OCCO2 [compound 331]

IC50 (Table 8, read-out: hT2R54 IC50): 320 nM
Compound: CC(=O)c1cc2c(cc1NC(=O)CC1CCN(C(=O)Cc3ccc(O)cc3)CC1)OCO2 [compound 254]

IC50 [2]: 100 nM
Compound: CCOC(=O)[C@H]1CCCN1CC(=O)Nc1cc2c(cc1C(C)=O)OCO2 [compound 420]

IC50 (Table 7, cells stably expressing hT2R54 and a promiscuous G protein, read-out: hT2R54 IC50): 30 nM
Compound: CCNC(=O)N1CCCC(N(C)CC(=O)Nc2cc3c(cc2C(C)=O)OCO3)C1 (centres unmarked) [compound 189]

IC50 [2]: 287 nM
Compound: COC(=O)c1cc2c(cc1NC(=O)CN1CCOCC1)OCO2 [compound 436]

IC50 (Table 8, read-out: hT2R54 IC50): 130 nM
Compound: CC(=O)c1cc2c(cc1NC(=O)CC1CCCN(S(=O)(=O)c3ccco3)C1)OCO2 (centres unmarked) [compound 227]

IC50 (Table 9, read-out: hT2R54 IC50): 1220 nM
Compound: CC(=O)c1cc2c(cc1NC(=O)CCc1ccccc1)OCO2 [compound 278]

IC50 [1]: 880 nM
Compound: COc1cc2c(cc1NC(=O)CN1CCN(C(=O)CC3CCCO3)CC1)OCO2 (centres unmarked) [compound 408]

IC50 [1]: 82 nM
Compound: COCC(=O)N1CCN(CC(=O)Nc2cc3c(cc2C(=O)OC)OCO3)CC1 [compound 311]

IC50 (Table 8, read-out: hT2R54 IC50): 506 nM
Compound: CC(=O)c1cc2c(cc1NC(=O)CC1CCN(C(=O)C3CCCC3)C1)OCO2 (centres unmarked) [compound 266]

IC50 (Table 8, read-out: hT2R54 IC50): 140 nM
Compound: CC(=O)c1cc2c(cc1NC(=O)CC1CCCN(C(=O)c3ccc(O)cc3O)C1)OCO2 (centres unmarked) [compound 457]

IC50 (given in example heading, read-out: IC50): 57 nM
Compound: CCOC(=O)C1CN(C(=O)CC(C)C)CCN1CC(=O)Nc1cc2c(cc1C(C)=O)OCO2 (centres unmarked) [compound 192, Ethyl 1-(2-((6-Acetylbenzo[d][1,3]dioxol-5-yl)amino)-2-oxoethyl)-4-(3-methylbutanoyl)piperazine-2-carboxylate]
